Reference: ChEMBL document CHEMBL5724914, “Linking interpersonal differences in gut microbiota composition and drug biotransformation activity” (2024)

Assay: (§1) The drug is tested on WLS-027 corresponding to human gut metagenome with ENA study accession number: PRJEB37062 and ENA sample accession number: ERS12561744 for biotransformation under anaerobic condition. The drug concentrations were measured over 9 timepoints collected between 0 and 24 hours of incubation by liquid-chromatography-coupled mass spectrometry (LC–MS)
Settings: 2 µM
Further: call rule not given here.

SMILES	Bacterial Biotransformation
COCCc1ccc(OCC(O)CNC(C)C)cc1.COCCc1ccc(OCC(O)CNC(C)C)cc1.O=C(O)C(O)C(O)C(=O)O (stereo not given) [METOPROLOL TARTRATE]	Compound NOT metabolized
COc1ccc2c(c1OC)C(=O)O[C@@H]2[C@H]1c2c(cc3c(c2OC)OCO3)CCN1C [NOSCAPINE]	Compound NOT metabolized

Assay: as §1, with “Z-006” for “WLS-027”, “mouse” for “human”, “ERS12561806” for “ERS12561744”
Settings: 2 µM

SMILES	Bacterial Biotransformation
COCCc1ccc(OCC(O)CNC(C)C)cc1.COCCc1ccc(OCC(O)CNC(C)C)cc1.O=C(O)C(O)C(O)C(=O)O (stereo not given) [METOPROLOL TARTRATE]	Compound NOT metabolized
COc1ccc2c(c1OC)C(=O)O[C@@H]2[C@H]1c2c(cc3c(c2OC)OCO3)CCN1C [NOSCAPINE]	Compound NOT metabolized

Settings: human gut metagenome, 24 h, 2 µM

SMILES	Bacterial Biotransformation
COCCc1ccc(OCC(O)CNC(C)C)cc1.COCCc1ccc(OCC(O)CNC(C)C)cc1.O=C(O)C(O)C(O)C(=O)O (stereo not given) [METOPROLOL TARTRATE]	Compound NOT metabolized
COc1ccc2c(c1OC)C(=O)O[C@@H]2[C@H]1c2c(cc3c(c2OC)OCO3)CCN1C [NOSCAPINE]	Compound metabolized

Settings: human gut metagenome, 24 h, 2 µM
Remark: another data set of the same source

SMILES	Bacterial Biotransformation
COCCc1ccc(OCC(O)CNC(C)C)cc1.COCCc1ccc(OCC(O)CNC(C)C)cc1.O=C(O)C(O)C(O)C(=O)O (stereo not given) [METOPROLOL TARTRATE]	Compound NOT metabolized
COc1ccc2c(c1OC)C(=O)O[C@@H]2[C@H]1c2c(cc3c(c2OC)OCO3)CCN1C [NOSCAPINE]	Compound NOT metabolized

Assay: as §1, with “Z-023” for “WLS-027”, “to” for “to human gut”, “ERS12561822” for “ERS12561744”
Settings: 2 µM

SMILES	Bacterial Biotransformation
COCCc1ccc(OCC(O)CNC(C)C)cc1.COCCc1ccc(OCC(O)CNC(C)C)cc1.O=C(O)C(O)C(O)C(=O)O (stereo not given) [METOPROLOL TARTRATE]	Compound NOT metabolized
COc1ccc2c(c1OC)C(=O)O[C@@H]2[C@H]1c2c(cc3c(c2OC)OCO3)CCN1C [NOSCAPINE]	Compound metabolized

Assay: as §1, with “Z-021” for “WLS-027”, “to” for “to human gut”, “ERS12561820” for “ERS12561744”
Settings: 2 µM

SMILES	Bacterial Biotransformation
COCCc1ccc(OCC(O)CNC(C)C)cc1.COCCc1ccc(OCC(O)CNC(C)C)cc1.O=C(O)C(O)C(O)C(=O)O (stereo not given) [METOPROLOL TARTRATE]	Compound NOT metabolized
COc1ccc2c(c1OC)C(=O)O[C@@H]2[C@H]1c2c(cc3c(c2OC)OCO3)CCN1C [NOSCAPINE]	Compound NOT metabolized

Settings: human gut metagenome, 24 h, 2 µM
Remark: another data set of the same source

SMILES	Bacterial Biotransformation
COCCc1ccc(OCC(O)CNC(C)C)cc1.COCCc1ccc(OCC(O)CNC(C)C)cc1.O=C(O)C(O)C(O)C(=O)O (stereo not given) [METOPROLOL TARTRATE]	Compound NOT metabolized
COc1ccc2c(c1OC)C(=O)O[C@@H]2[C@H]1c2c(cc3c(c2OC)OCO3)CCN1C [NOSCAPINE]	Compound NOT metabolized

Assay: as §1, with “Z-011” for “WLS-027”, “mouse” for “human”, “ERS12561811” for “ERS12561744”
Settings: 2 µM

SMILES	Bacterial Biotransformation
COCCc1ccc(OCC(O)CNC(C)C)cc1.COCCc1ccc(OCC(O)CNC(C)C)cc1.O=C(O)C(O)C(O)C(=O)O (stereo not given) [METOPROLOL TARTRATE]	Compound NOT metabolized
COc1ccc2c(c1OC)C(=O)O[C@@H]2[C@H]1c2c(cc3c(c2OC)OCO3)CCN1C [NOSCAPINE]	Compound metabolized

Assay: as §1, with “WLS-039” for “WLS-027”, “ERS12561746” for “ERS12561744”
Settings: 2 µM

SMILES	Bacterial Biotransformation
COCCc1ccc(OCC(O)CNC(C)C)cc1.COCCc1ccc(OCC(O)CNC(C)C)cc1.O=C(O)C(O)C(O)C(=O)O (stereo not given) [METOPROLOL TARTRATE]	Compound NOT metabolized
COc1ccc2c(c1OC)C(=O)O[C@@H]2[C@H]1c2c(cc3c(c2OC)OCO3)CCN1C [NOSCAPINE]	Compound NOT metabolized

Assay: as §1, with “Z-022” for “WLS-027”, “mouse” for “human”, “ERS12561821” for “ERS12561744”
Settings: 2 µM

SMILES	Bacterial Biotransformation
COCCc1ccc(OCC(O)CNC(C)C)cc1.COCCc1ccc(OCC(O)CNC(C)C)cc1.O=C(O)C(O)C(O)C(=O)O (stereo not given) [METOPROLOL TARTRATE]	Compound NOT metabolized
COc1ccc2c(c1OC)C(=O)O[C@@H]2[C@H]1c2c(cc3c(c2OC)OCO3)CCN1C [NOSCAPINE]	Compound metabolized

Settings: human gut metagenome, 24 h, 2 µM
Remark: another data set of the same source

SMILES	Bacterial Biotransformation
COCCc1ccc(OCC(O)CNC(C)C)cc1.COCCc1ccc(OCC(O)CNC(C)C)cc1.O=C(O)C(O)C(O)C(=O)O (stereo not given) [METOPROLOL TARTRATE]	Compound metabolized
COc1ccc2c(c1OC)C(=O)O[C@@H]2[C@H]1c2c(cc3c(c2OC)OCO3)CCN1C [NOSCAPINE]	Compound NOT metabolized

Settings: human gut metagenome, 24 h, 2 µM
Remark: another data set of the same source

SMILES	Bacterial Biotransformation
COCCc1ccc(OCC(O)CNC(C)C)cc1.COCCc1ccc(OCC(O)CNC(C)C)cc1.O=C(O)C(O)C(O)C(=O)O (stereo not given) [METOPROLOL TARTRATE]	Compound NOT metabolized
COc1ccc2c(c1OC)C(=O)O[C@@H]2[C@H]1c2c(cc3c(c2OC)OCO3)CCN1C [NOSCAPINE]	Compound metabolized

Settings: human gut metagenome, 24 h, 2 µM
Remark: another data set of the same source

SMILES	Bacterial Biotransformation
COCCc1ccc(OCC(O)CNC(C)C)cc1.COCCc1ccc(OCC(O)CNC(C)C)cc1.O=C(O)C(O)C(O)C(=O)O (stereo not given) [METOPROLOL TARTRATE]	Compound NOT metabolized
COc1ccc2c(c1OC)C(=O)O[C@@H]2[C@H]1c2c(cc3c(c2OC)OCO3)CCN1C [NOSCAPINE]	Compound metabolized

Assay: as §1, with “WLS-010” for “WLS-027”, “ERS12561743” for “ERS12561744”
Settings: 2 µM

SMILES	Bacterial Biotransformation
COCCc1ccc(OCC(O)CNC(C)C)cc1.COCCc1ccc(OCC(O)CNC(C)C)cc1.O=C(O)C(O)C(O)C(=O)O (stereo not given) [METOPROLOL TARTRATE]	Compound NOT metabolized
COc1ccc2c(c1OC)C(=O)O[C@@H]2[C@H]1c2c(cc3c(c2OC)OCO3)CCN1C [NOSCAPINE]	Compound NOT metabolized

Settings: human gut metagenome, 24 h, 2 µM
Remark: another data set of the same source

SMILES	Bacterial Biotransformation
COCCc1ccc(OCC(O)CNC(C)C)cc1.COCCc1ccc(OCC(O)CNC(C)C)cc1.O=C(O)C(O)C(O)C(=O)O (stereo not given) [METOPROLOL TARTRATE]	Compound NOT metabolized
COc1ccc2c(c1OC)C(=O)O[C@@H]2[C@H]1c2c(cc3c(c2OC)OCO3)CCN1C [NOSCAPINE]	Compound NOT metabolized

Assay: as §1, with “WLS-098” for “WLS-027”, “ERS12561754” for “ERS12561744”
Settings: 2 µM

SMILES	Bacterial Biotransformation
COCCc1ccc(OCC(O)CNC(C)C)cc1.COCCc1ccc(OCC(O)CNC(C)C)cc1.O=C(O)C(O)C(O)C(=O)O (stereo not given) [METOPROLOL TARTRATE]	Compound metabolized
COc1ccc2c(c1OC)C(=O)O[C@@H]2[C@H]1c2c(cc3c(c2OC)OCO3)CCN1C [NOSCAPINE]	Compound metabolized

Settings: human gut metagenome, 24 h, 2 µM
Remark: another data set of the same source

SMILES	Bacterial Biotransformation
COCCc1ccc(OCC(O)CNC(C)C)cc1.COCCc1ccc(OCC(O)CNC(C)C)cc1.O=C(O)C(O)C(O)C(=O)O (stereo not given) [METOPROLOL TARTRATE]	Compound NOT metabolized
COc1ccc2c(c1OC)C(=O)O[C@@H]2[C@H]1c2c(cc3c(c2OC)OCO3)CCN1C [NOSCAPINE]	Compound metabolized

Assay: as §1, with “Z-025” for “WLS-027”, “rabbit” for “human”, “ERS12561824” for “ERS12561744”
Settings: 2 µM

SMILES	Bacterial Biotransformation
COCCc1ccc(OCC(O)CNC(C)C)cc1.COCCc1ccc(OCC(O)CNC(C)C)cc1.O=C(O)C(O)C(O)C(=O)O (stereo not given) [METOPROLOL TARTRATE]	Compound metabolized
COc1ccc2c(c1OC)C(=O)O[C@@H]2[C@H]1c2c(cc3c(c2OC)OCO3)CCN1C [NOSCAPINE]	Compound NOT metabolized

Settings: human gut metagenome, 24 h, 2 µM
Remark: another data set of the same source

SMILES	Bacterial Biotransformation
COCCc1ccc(OCC(O)CNC(C)C)cc1.COCCc1ccc(OCC(O)CNC(C)C)cc1.O=C(O)C(O)C(O)C(=O)O (stereo not given) [METOPROLOL TARTRATE]	Compound metabolized
COc1ccc2c(c1OC)C(=O)O[C@@H]2[C@H]1c2c(cc3c(c2OC)OCO3)CCN1C [NOSCAPINE]	Compound metabolized

Assay: as §1, with “WLS-052” for “WLS-027”, “ERS12561747” for “ERS12561744”
Settings: 2 µM

SMILES	Bacterial Biotransformation
COCCc1ccc(OCC(O)CNC(C)C)cc1.COCCc1ccc(OCC(O)CNC(C)C)cc1.O=C(O)C(O)C(O)C(=O)O (stereo not given) [METOPROLOL TARTRATE]	Compound NOT metabolized
COc1ccc2c(c1OC)C(=O)O[C@@H]2[C@H]1c2c(cc3c(c2OC)OCO3)CCN1C [NOSCAPINE]	Compound NOT metabolized
